{"source": "patent US20250186405A1", "about": "“Compound For Use In Treating Narcolepsy” (Alkermes, Inc., priority 2023, published 2025)", "key": {"[1]": {"assay": "Part 5 NT2: plasma pharmacokinetics, single doses", "assay_type": "in vivo, human", "details": "for Cmax / AUC(0-t) / Tmax: human, oral; for Cmax / AUC(0-t): geometric mean; for AUC(0-t): read-out: AUC0-24; for Tmax: plasma", "description": "Treatments were administered under fasted state. Dose levels were as follows:\n(§1) Subjects were randomized to 1 of 4 sequences.\n(§2) Blood samples (up to 5 mL per sample) were collected for PK analysis of Compound A and its metabolite(s). The actual time of sample collection was recorded. The PK samples of the subjects randomized to placebo treatment were not analyzed. Any remaining plasma PK samples were used to explore the presence of any additional metabolites and/or biomarkers.\n(§3) Plasma and urine concentrations of Compound A and its metabolite(s) were measured using a validated high-performance liquid chromatography with tandem mass spectrometry.\n(§4) The PK population was used for summaries of plasma Compound A and its metabolite(s) concentrations and for analyses, summaries, and listing of PK parameters. Dose proportionality for Cmax, AUC0-t, and AUC0-∞ was evaluated using a linear model of logarithmically transformed values to assess the slope parameter, and the 95% CI for the slope was estimated. Where a 95% CI of the slope includes 1, it was considered as evidence of dose proportionality for that PK parameter."}, "[2]": {"assay": "Part 4 NT1: plasma pharmacokinetics, single doses", "assay_type": "in vivo", "details": "human, oral; for Cmax / AUC(0-t): geometric mean", "description": "as §1, §2, §3, §4"}, "healthy adult subjects": {"tested_on": "healthy adult subjects", "details": "human, in vivo", "experimental": "Part 1 of the study is a SAD evaluation in healthy subjects consisting of 6 cohorts: Cohorts 1-6 received powder-in-capsule or matching placebo. There were approximately 8 subjects per cohort. Dose levels were as follows:\nNo food was given for at least 4 hours after dose administration. Water was allowed ad libitum except for the time 1 hour before and 1 hour after study drug administration. Safety assessments including AEs, safety ECGs, vital signs, and clinical laboratory tests were conducted, and plasma PK samples were collected.\nAdverse events (AEs) and serious adverse events (SAEs) were monitored continuously until the completion of the study."}, "[3]": {"tested_on": "subjects with narcolepsy type-2 (NT2)", "assay": "Part 5 NT2: Karolinska Sleepiness Scale (KSS)", "assay_type": "in vivo, human", "details": "for Change From Day −1 in Average Karolinska Sleepiness Scale, LSM difference vs placebo: NT2, N = 9; for Change From Day −1 in Average Karolinska Sleepiness Scale, LSM: NT2, N = 9, average of 1, 2, 4, 6, 8 h", "description": "At points within the study, subjects were asked to rate their sleepiness using the KSS with regard to the level of sleepiness they experienced over the past 5 minutes.\nThe KSS is a validated, self-reported outcome measure of subjective sleepiness. The KSS was developed as a one-dimensional measure of sleepiness and has been validated against assessments like EEG and electrooculography activity (Akerstedt and Gillberg 1990). The KSS is comprised of a single question that asks the subject to rate their sleepiness in the immediately preceding 5 minutes on a 9-point scale where 1=extremely alert and 9=very sleepy, great effort to keep awake, fighting sleep. The KSS takes approximately 10 to 15 seconds to complete. Thus, the KSS is well suited for repeated measurement at short intervals as it assesses situational sleepiness within a short timeframe.\nThe PD parameters in the POC evaluation (e.g., changes from baseline in sleep latency on MWT, number of errors on SART and level of sleepiness on KSS at matched time points) were summarized using descriptive statistics for each time point by dose level."}, "[4]": {"tested_on": "non-sleep deprived healthy volunteers", "assay": "Part 1 SAD: quantitative EEG (beta band power) and KSS biomarkers", "assay_type": "in vivo, human", "details": "single doses, resting wakeful state", "description": "On Day −1, approximately 25 hours prior to study drug administration (on Day 1), baseline assessments for qEEG began and were collected for approximately 12 hours.\nAt time points within Part 1 of the study, qEEG assessment was performed. The subject remained still in a seated or supine position during the EEG acquisition time points. Each EEG acquisition continued for a total of 10 minutes: initial 5 minutes with eyes closed followed by 5 minutes with eyes open looking at a fixation point.\nThe PD parameters in the SAD evaluation (e.g., changes from baseline in QTcF, power of qEEG frequency bands, KSS) were summarized using descriptive statistics for each time point by dose level.\nAs discussed above in Example sections 4.10.3.2, 4.13.4, and 4.15.1, pharmacodynamic parameters in the SAD evaluation (e.g., changes from baseline in QTcF, power of qEEG frequency bands, KSS) were measured in non-sleep deprived healthy volunteers. […] The dots indicate the average post-dose measurements at each timepoint and the shaded areas show the confidence intervals. The data points representing Compound A cluster in the area associated with both higher beta power and increased alertness relative to placebo, with little overlap between the two groups."}}, "data": [{"smiles": "CS(=O)(=O)N[C@H]1CCCN2C(=O)COc3ccccc3C3CCC(CC3)OCC12", "note": "(stereo partly drawn) [Compound A, N-[(4S,4aR,7α,10α)-1,2,3,4,4a,5,7,8,9,10,16,17-dodecahydro-17-oxo-7,10-ethanopyrido[1,2-d][1,7,4]benzodioxaazacyclotridecin-4-yl]methanesulfonamide]", "values": [{"measurement": "fold change in AUC and Cmax for 5-fold change in dose", "setting": "[1]; NT2 patients, 5 to 25 mg", "value": "approximately 3 fold"}, {"measurement": "Cmax", "setting": "[1]; 5 mg, NT2, plasma, n = 8", "value": 13.4, "unit": "ng/mL"}, {"measurement": "AUC(0-t)", "setting": "[1]; 5 mg, NT2, plasma, n = 8", "value": 78.1, "unit": "ng·h/mL"}, {"measurement": "Cmax", "setting": "[1]; 12 mg, NT2, plasma, n = 8", "value": 24, "unit": "ng/mL"}, {"measurement": "AUC(0-t)", "setting": "[1]; 12 mg, NT2, plasma, n = 8", "value": 185, "unit": "ng·h/mL"}, {"measurement": "Cmax", "setting": "[1]; 25 mg, NT2, plasma, N = 9", "value": 38, "unit": "ng/mL"}, {"measurement": "AUC(0-t)", "setting": "[1]; 25 mg, NT2, plasma, N = 9", "value": 231, "unit": "ng·h/mL"}, {"measurement": "Tmax", "setting": "[1]; 5 mg, NT2, plasma, median, n = 8, read-out: Tmax", "value": 1.75, "unit": "h"}, {"measurement": "Tmax", "setting": "[1]; 12 mg, NT2, plasma, median, n = 8, read-out: Tmax", "value": 2, "unit": "h"}, {"measurement": "Tmax", "setting": "[1]; 25 mg, NT2, plasma, median, N = 9, read-out: Tmax", "value": 3, "unit": "h"}, {"measurement": "Tmax", "setting": "[1]; 25 mg, NT2 patients, 5, 12, 25 mg, read-out: median tmax, range across doses", "value": "1.75 to 3", "unit": "h"}, {"measurement": "Tmax", "setting": "[2]; 1 mg, NT1, 1 mg single dose, median, N = 3, read-out: Tmax", "value": 1.5, "unit": "h"}, {"measurement": "Tmax", "setting": "[2]; 3 mg, NT1, 3 mg single dose, median, N = 4, read-out: Tmax", "value": 1.5, "unit": "h"}, {"measurement": "Tmax", "setting": "[2]; 8 mg, NT1, 8 mg single dose, median, N = 3, read-out: Tmax", "value": 3, "unit": "h"}, {"measurement": "Tmax", "setting": "[2]; 8 mg, NT1, single dose 1, 3 and 8 mg (range 0.5 to 4.0), read-out: median Tmax", "value": 1.5, "unit": "h"}, {"measurement": "Cmax", "setting": "[2]; NT1, 1 mg single dose, N = 3", "value": 4.39, "unit": "ng/mL"}, {"measurement": "AUC(0-t)", "setting": "[2]; NT1, 1 mg single dose, N = 3, read-out: AUC0-24", "value": 19.5, "unit": "ng·h/mL"}, {"measurement": "Cmax", "setting": "[2]; NT1, 3 mg single dose, N = 4", "value": 11.6, "unit": "ng/mL"}, {"measurement": "AUC(0-t)", "setting": "[2]; NT1, 3 mg single dose, N = 4, read-out: AUC0-24", "value": 59.1, "unit": "ng·h/mL"}, {"measurement": "Cmax", "setting": "[2]; NT1, 8 mg single dose, N = 3", "value": 27.9, "unit": "ng/mL"}, {"measurement": "AUC(0-t)", "setting": "[2]; NT1, 8 mg single dose, N = 3, read-out: AUC0-24", "value": 169, "unit": "ng·h/mL"}, {"measurement": "TEAE COVID-19", "setting": "healthy adult subjects", "value": 3, "unit": "n"}, {"measurement": "Change From Day −1 in Average Karolinska Sleepiness Scale, LSM difference vs placebo", "setting": "[3]; 5 mg", "value": "−0.31"}, {"measurement": "Change From Day −1 in Average Karolinska Sleepiness Scale, LSM", "setting": "[3]; 5 mg", "value": "−0.68"}, {"measurement": "Change From Day −1 in Average Karolinska Sleepiness Scale, LSM difference vs placebo", "setting": "[3]; 12 mg", "value": "−0.60"}, {"measurement": "Change From Day −1 in Average Karolinska Sleepiness Scale, LSM", "setting": "[3]; 12 mg", "value": "−0.97"}, {"measurement": "Change From Day −1 in Average Karolinska Sleepiness Scale, LSM difference vs placebo", "setting": "[3]; 25 mg", "value": "−1.42"}, {"measurement": "Change From Day −1 in Average Karolinska Sleepiness Scale, LSM", "setting": "[3]; 25 mg", "value": "−1.78"}, {"measurement": "LS mean difference vs placebo in change from Day −1, average KSS", "setting": "[3]; NT2, 5 mg", "value": "−0.31"}, {"measurement": "LS mean difference vs placebo in change from Day −1, average KSS", "setting": "[3]; NT2, 12 mg", "value": "−0.60"}, {"measurement": "LS mean difference vs placebo in change from Day −1, average KSS", "setting": "[3]; NT2, 25 mg", "value": "−1.42"}, {"measurement": "qEEG beta band signal, change from baseline", "setting": "[4]", "value": "Dose-dependent increases in beta band signal were observed"}]}]}
